{
  "source": "patent US20210052546A1",
  "about": "“METHODS AND PHARMACEUTICAL COMPOSITIONS FOR THE TREATMENT OF FGFR3-RELATED CHONDRODYSPLASIAS” (INSERM (INSTITUT NATIONAL DE LA SANTÉ ET DE LA RECHERCHE …, priority 2018, published 2021)",
  "key": {"Fgfr3^Y367C/+ femurs": {"test_system": "Fgfr3^Y367C/+ femurs", "experiment": "Ex vivo femur cultures isolated from Fgfr3Y367C/+ mice", "protocol": "(§1) Several sets of ex vivo experiments were performed as previously described (Jonquoy et al., Hum Mol Genet, 21: 841-851, 2012). Femur embryos at day E16.5 from Fgfr3^+/+ (n=23) and Fgfr3^Y367C/+ (n=16) mice were used and incubated for 6 days in DMEM medium with antibiotics and 0.2% BSA (Sigma) supplemented with cocoa F5 or (−)-epicatechin (Sigma-0394-05-90) or DMSO (as control) at a concentration of 10 and 30 μg/ml. To establish the effect of the inhibitors, the left femur was cultured in supplemented medium and compared with the right one cultured in control medium. The bone length was measured at the beginning (before treatment) and at the end of time course. The genotype of Fgfr3^+/+ and Fgfr3^Y367C/+ mice were determined by PCR of tail DNA as previously described (Pannier et al., Biochim Biophys Acta, 1792: 140-147, 2009). All experimental procedures and protocols were approved by the Animal Care and Use Committee."}, "Fgfr3^+/+ femurs": {"test_system": "Fgfr3^+/+ femurs", "experiment": "Ex vivo femur cultures isolated from Fgfr3+/+ mice", "protocol": "as §1"}, "growth plate cartilage": {"test_system": "growth plate cartilage", "experiment": "Histology and immunohistochemistry of growth plate cartilage of cultured femur explants", "parameters": "species or system mice", "protocol": "In order to appreciate the impact of the treatment on the growth plate cartilage, we performed histological and immunohistological studies. We selected specific markers of the cartilage, SOX9 and Collagen type X, we tested the expression of the protein FGFR3 and we also evaluated the expression of the phosphorylated Erk1/2 proteins of the […] signalling and activated by FGFR3. Limb explants were fixed after culture in 4% paraformaldehyde at 4° C. and embedded in paraffin. Serial 5 μm sections were stained with Hematoxylin-Eosin using standard protocols for histological analysis or were subjected to immunohistochemical staining. For immunohistochemistry, sections were stained with antibodies specific to FGFR3 (1:100 dilution; Sigma), anti-Collagen type X (1:50 dilution; Quartett) anti-SOX9 (1:1000 dilution; Abcam), anti-phosphorylated Erk1/2 (1:100 dilution; Cell signaling) using the Dako Envision system kit. Images were captured with an Olympus PD70-IX2-UCB microscope."}, "[1]": {"test_system": "Fgfr3^Y367C/+ chondrocytes", "experiment": "Primary cilium length in antenatal E16.5 Fgfr3Y367C/+ chondrocytes (immunocytochemistry)", "assay_type": "cell-based, mice", "protocol": "Cultured chondrocytes issued from Fgfr3^Y367C/+ were fixed at room temperature for 10 min in methanol (chilled at −20° C.), and then washed with PBS. Samples were permeabilized for 10 min with PBS containing 0.1% Triton-X100 (Sigma-Aldrich), then washed three times for 5 min. Samples were incubated with PBS containing 10% goat serum (Biowest) for 60 min at room temperature. Primary antibodies were incubated at 4° C. overnight. The following primary antibodies were used: mouse IgG1 anti-γ-tubulin (Sigma-Aldrich #T6557, 1:1000) and rabbit anti-Ar113b (Proteintech #177111-AP, 1:500). Cells were washed with PBS, and then incubated with goat anti-mouse IgG1 coupled with AlexaFluor 488 (Life Technologies, 1:1000) and goat anti-rabbit coupled with AlexaFluor 647 (Life Technologies, 1:1000) secondary antibodies for 2h at room temperature in the dark. Samples were extensively washed and mounted with a solution of DAPI-Fluoromount G (SouthernBiotech) containing DAPI (4′,6′-diamidino-2-phenylindole) for nuclear staining. Image acquisition were captured using a Spinning disk confocal microscope. […] In order to compare measured data, all confocal experiments showing PC length was acquired in same conditions using slice thickness of 0.20 μm and a pixel size of 60 nm. […] We next measured in 2D the PC lengths by IMARIS software (Bitplane)."}, "[2]": {"conditions": "proximal and distal femurs, immunohistochemistry"}},
  "data": [
    {"smiles": "Oc1cc(O)c2c(c1)O[C@H](c1ccc(O)c(O)c1)[C@H](O)C2", "note": "[(−)-epicatechin, (2R,3R)-2-(3,4-dihydroxyphenyl)-3,4-dihydro-2H-chromene-3,5,7-triol]", "values": [
      {"measurement": "size of the femurs, Fgfr3Y367C/+", "setting": "Fgfr3^Y367C/+ femurs; 1 μg/ml (FIG. 13)", "value": "did not improve"},
      {"measurement": "percentage of femur growth in Fgfr3Y367C/+ mice versus Fgfr3+/+ mice", "setting": "Fgfr3^Y367C/+ femurs; 10 μg/ml, 6 days culture", "value": "more important"},
      {"measurement": "increase of length of the Fgfr3Y367C/+ femurs comparing to Fgfr3+/+ femurs", "setting": "Fgfr3^Y367C/+ femurs; 10 μg/ml, E16.5 femurs, 6 days culture", "value": "+10%"},
      {"measurement": "size of the femurs, Fgfr3+/+", "setting": "Fgfr3^+/+ femurs; 1 μg/ml (FIG. 13)", "value": "did not improve"},
      {"measurement": "growth of the Fgfr3+/+ femurs", "setting": "Fgfr3^+/+ femurs; 10 μg/ml, 6 days culture", "value": "did not impair"},
      {"measurement": "reserve, proliferative and pre-hypertrophic zones of the growth plate cartilage", "setting": "growth plate cartilage; H&E staining", "value": "increased"},
      {"measurement": "whole growth plate cartilage", "setting": "growth plate cartilage; H&E staining", "value": "improved"},
      {"measurement": "epiphysis size", "setting": "growth plate cartilage; proximal and distal femur, histology", "value": "increase size"},
      {"measurement": "FGFR3 expression", "setting": "growth plate cartilage; [2]", "value": "strongly decreased"},
      {"measurement": "SOX9 expression", "setting": "growth plate cartilage; [2]", "value": "strongly decreased"},
      {"measurement": "collagen type X expression", "setting": "growth plate cartilage; [2]", "value": "not modified"},
      {"measurement": "phosphorylated Erk1/2 expression", "setting": "growth plate cartilage; [2]", "value": "slightly decreased"},
      {"measurement": "effect on primary cilium", "setting": "[1]; Fgfr3Y367C/+ chondrocytes", "value": "elongation"},
      {"measurement": "primary cilium average length (A)", "setting": "[1]; Fgfr3Y367C/+ chondrocytes treated with (−)-epicatechin, n=113, N=3, mean+S.E.M., untreated 2.10+0.06, in µm", "value": "2.45+0.09"}
    ]}
  ]
}
